From patent publication US11542249B2, “BTK inhibitor compounds” (Eli Lilly and Company, priority 2017, dated 2023)

Tests used:
[1] = system: type II collagen-induced arthritis (CIA) rat model; assay: Rat In Vivo Collagen-Induced Arthritis Assay; set-up: species or system Female Lewis rats; settings: for % inhibition paw thickness AUC vs Vehicle control / % paw thickness AUC (mm) ± SE: CIA rats, 9 days; for arthritis severity in CIA rats: compared to vehicle treated CIA rats
Procedure: A type II collagen-induced arthritis (CIA) rat model may be used to evaluate the therapeutic effects of compounds. Female Lewis rats (Charles River Charles River Laboratories, Inc.) with a mean body weight of 155-175 g are used for the study. Animals are fed with standard rodent chow and provided water ad libitum. Immunization emulsion is prepared with 2 mg/ml bovine collagen-II mixed with an equal volume of incomplete Freund's adjuvant (IFA). Rats are immunized intradermally with 0.4 ml collagen emulsion in two sites each on the lower lumbar region, above the base of the tail on day 1, and again on day 8. Animals are randomized based on the paw thickness and body weight on day 11 into study groups, with 8 rats in each group. Compounds are prepared in 1% HEC/0.25% P80/0.05% anti-foam in purified water and dosed daily via oral gavage for 9 days. Paw thickness is quantitated daily using a caliper measurement in the right ankle site.
The inhibition by the compounds of the invention is evaluated using Dunnett's post test for multiple comparisons for the CIA rat groups treated with the indicated Example compound, at the indicated dose, as compared to CIA rat groups treated with vehicle, and differences of P<0.05 are considered to be significant. […] Mean sum paw thickness is decreased compared to vehicle treated CIA rats. Mean percent paw thickness inhibition during the treatment period illustrates dose-related improvement.
Table 4 indicates the in vivo activity for exemplified BTK inhibitors in the collagen-induced arthritis model (SE=standard error).

Rat Oral Bioavailability = assay type: in vivo, Sprague-Dawley rats; settings: Sprague-Dawley, plasma, PO 3 mg/kg vs IV 1 mg/kg, read-out: Rat Oral Bioavailability (% F)
Procedure: The test compound is administered to Sprague-Dawley rats intravenously (IV) at 1 mg/kg (using vehicles of either: 20% CAPTISOL® in 25 mM sodium phosphate buffer, pH2 quantum satis; or 25% DMA, 15% EtOH, 10% propylene glycol, 25% 2-pyrrolidone, and 25% purified water) and orally (PO) at 3 mg/kg (using a vehicle of 1% hydroxyethyl cellulose, 0.25% polysorbate 80, 0.05% Antifoam 1510-US, and purified water quantum satis). Serial blood samples are collected at 0.08, 0.25, 0.5, 1, 2, 4, 8, and 12 h post dose for IV bolus and at 0.25, 0.5, 1, 2, 4, 8, and 12 h post dose after oral administration. After treatment with an EDTA […], plasma is obtained by centrifugation and stored at −70° C. until analysis by LC-MS/MS. Test article concentration is determined in plasma and uploaded into the Watson LIMS™ system where noncompartmental analysis is used to calculate Area Under the Curve (AUC) for both IV and PO arms. Bioavailability (% F) is calculated via the following equation, %F=(AUCPO×DoseIV)/(AUCIV×DosePO)×100. Table 3 indicates the rat oral bioavailability of select BTK inhibitors.

[2] = system: activated B cells in human whole blood (CD69); assay: Human Whole Blood CD69 in vitro assay (B cell activation, flow cytometry); assay type: cell-based; settings: IC50 value ± standard deviation, anti-human-IgD-Dextran stimulation, read-out: HWB CD69 Rel IC50
Procedure: Human Whole Blood CD69 in Vitro Assay:
The HWB CD69 assay measures activated B cells in human whole blood using a flow cytometer. Compounds are diluted and added to assay plates with a Labcyte ECHO® 555 liquid handler. Compounds are tested in 10 point dose response curves (20 μM-0.001 μM) in 96-well v-bottom plates with a maximum DMSO concentration of 0.2%. Fresh blood from individual healthy volunteer is mixed with HEPES (0.5 ml HEPES added per 10 ml blood) and 100 μl/well is added to compound plates. The plates are sealed and incubated in a 37° C. incubator for 3 h. Anti-human-IgD-Dextran is added to each well to give a final concentration of 100 ng/ml, mixed, and put back into the incubator. After 1 h, the cells are washed with cold FACS buffer and transferred to a deep well plate. The cells are incubated with anti-human CD69-PE (BIOLEGEND®, clone FN50) and anti-human CD19-APC (BIOLEGEND®, clone HIB19) antibodies on ice for 20 min. The cells are washed and incubated in eBioscience™ 1-step Fix/Lyse solution (10×) at RT to lyse the red blood cells and fix the other cells. The white cells are pelleted and washed in FACS buffer and then brought up in read buffer. The suspended cells are transferred to 96-well round bottom plates and read on an IntelliCyt iQue® Screener Plus flow cytometer. From the SSC (Side Scatter Channel) vs FSC (Forward Scatter Channel) graph, the lymphocytes are identified. Lymphocytes are identified with gated on positive CD19 marker for quantify CD69 (a marker of activated B lymphocytes) MFI (mean fluorescent intensity/cell). The signal ratio is converted to percent inhibition using the following equation: % Inhibition=100−[(Test Compound−Median Min)/(Median Max−Median Min)×100].
(§1) The following Table 1 and Table 2 describes the relative IC50 data vs. human BTK, human EGFR, and human whole blood CD69.

human EGFR = human EGFR (Homo sapiens (Human), UniProt P00533); assay: EGFR LANTHASCREEN Eu Kinase Binding Assay; settings: IC50 value ± standard deviation; truncated GST-labeled EGFR, kinase tracer 199; read-out: hEGFR Rel IC50
Procedure: (§2) BTK and EGFR in Vitro Assays:
(§3) The BTK and EGFR biochemical assays utilize LANTHASCREEN® Eu Kinase Binding Assays from Thermo Fisher Scientific, measuring the binding of the kinase with a […] tracer. The assay buffer consists of 50 mM HEPES pH 7.5, 0.01% BRU™-35, 10 mM MgCl2, 1 mM EGTA, and 1 mM DTT. The test compounds are diluted and added to the assay plate with a Labcyte ECHO® 555 liquid handler. The compounds are tested in 10 point dose response curves (100 μM-0.005 μM) with a maximum DMSO concentration of 1%. The assays are performed in 20 μL in low-volume 384-well white proxiplates. For the BTK assay, the concentration of full-length His-labeled BTK in the assay is 5 nM, the Eu-anti-His antibody is 2 nM, and the kinase tracer 236 is 60 nM. For the EGFR assay, the concentration of truncated (amino acids 668-1210) GST-labeled EGFR is 5 nM, the Eu-anti-GST antibody is 2 nM, and the kinase tracer 199 is 10 nM. The components of the assay (compound, enzyme/antibody, tracer) are assembled and incubated for 30 min prior to being read on a Perkin-Elmer EnVision with excitation at 340 nm, tracer emission at 665 nm, and antibody emission at 615 nm. The signal ratio is converted to percent inhibition using the following equation: % Inhibition=100−[(Test Compound−Median Minimum)/(Median Maximum−Median Minimum)×100].

human BTK = human BTK (Homo sapiens (Human), UniProt Q06187); assay: BTK LANTHASCREEN Eu Kinase Binding Assay; settings: IC50 value ± standard deviation; full-length His-labeled BTK, kinase tracer 236; read-out: hBTK Rel IC50
Procedure: as §2, §3, §1

human EGFR, sequence (P00533 668-1210): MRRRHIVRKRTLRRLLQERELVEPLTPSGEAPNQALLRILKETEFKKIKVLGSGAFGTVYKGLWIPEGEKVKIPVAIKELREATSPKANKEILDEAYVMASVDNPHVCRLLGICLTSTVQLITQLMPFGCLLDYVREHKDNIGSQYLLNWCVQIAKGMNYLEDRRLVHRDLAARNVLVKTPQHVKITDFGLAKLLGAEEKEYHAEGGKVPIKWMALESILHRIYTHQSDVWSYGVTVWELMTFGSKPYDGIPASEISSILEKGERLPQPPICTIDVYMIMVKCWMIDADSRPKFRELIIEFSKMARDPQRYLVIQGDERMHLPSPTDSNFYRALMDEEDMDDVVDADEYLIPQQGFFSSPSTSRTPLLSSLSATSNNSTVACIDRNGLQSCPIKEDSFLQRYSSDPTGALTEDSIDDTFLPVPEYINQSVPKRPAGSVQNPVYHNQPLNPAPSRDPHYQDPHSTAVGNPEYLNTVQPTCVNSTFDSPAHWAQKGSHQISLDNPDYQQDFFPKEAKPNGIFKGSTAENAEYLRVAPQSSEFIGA
human BTK, sequence (Q06187 whole entry): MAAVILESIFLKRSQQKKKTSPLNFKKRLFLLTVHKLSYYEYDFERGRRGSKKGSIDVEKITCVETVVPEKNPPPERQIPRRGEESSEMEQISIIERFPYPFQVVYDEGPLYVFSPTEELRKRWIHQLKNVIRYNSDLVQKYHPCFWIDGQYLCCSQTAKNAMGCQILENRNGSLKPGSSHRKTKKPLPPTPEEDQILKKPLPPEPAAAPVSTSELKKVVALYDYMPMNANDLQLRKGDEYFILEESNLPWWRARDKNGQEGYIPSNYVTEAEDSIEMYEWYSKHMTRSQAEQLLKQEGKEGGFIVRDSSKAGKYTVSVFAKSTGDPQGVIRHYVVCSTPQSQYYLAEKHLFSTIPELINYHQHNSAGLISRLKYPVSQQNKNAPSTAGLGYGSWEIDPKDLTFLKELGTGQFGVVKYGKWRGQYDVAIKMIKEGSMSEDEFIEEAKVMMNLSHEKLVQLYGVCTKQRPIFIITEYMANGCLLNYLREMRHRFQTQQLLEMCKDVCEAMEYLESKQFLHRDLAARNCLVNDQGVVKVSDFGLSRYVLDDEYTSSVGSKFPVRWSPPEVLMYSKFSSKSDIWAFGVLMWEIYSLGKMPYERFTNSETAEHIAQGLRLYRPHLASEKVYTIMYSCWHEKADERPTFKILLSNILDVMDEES

Row | SMILES | % inhibition paw thickness AUC vs Vehicle control ([1]; 1 mg/kg/d oral) [%] | % paw thickness AUC (mm) ± SE ([1]; 1 mg/kg/d oral) [mm] | % inhibition paw thickness AUC vs Vehicle control ([1]; 3 mg/kg/d oral) [%] | % paw thickness AUC (mm) ± SE ([1]; 3 mg/kg/d oral) [mm] | bioavailability (Rat Oral Bioavailability) [%] | IC50 [2] [nM] | IC50 (human EGFR) [nM] | IC50 (human BTK) [nM] | % inhibition paw thickness AUC vs Vehicle control ([1]; 10 mg/kg/d oral) [%] | % paw thickness AUC (mm) ± SE ([1]; 10 mg/kg/d oral) [mm] | arthritis severity in CIA rats [1] | % inhibition paw thickness AUC vs Vehicle control ([1]; 0.3 mg/kg/d oral) [%] | % paw thickness AUC (mm) ± SE ([1]; 0.3 mg/kg/d oral) [mm]
1 | C=CC(=O)N1CC[C@H](Nc2cncc(-c3cnc(Oc4cccc(OC(F)F)c4)nc3)c2)C1 [Example 5, 1-[(3S)-3-[[5-[2-[3-(difluoromethoxy)phenoxy]pyrimidin-5-yl]-3-pyridyl]amino]pyrrolidin-1-yl]prop-2-en-1-one] | 34 | 71.68 ± 2.24 | 58 | 67.18 ± 1.07 | 36.6 | 485 ± 234 |  |  |  |  |  |  | 
2 | C=CC(=O)N1CCC(Nc2cncc(-c3cnc(Nc4cccc(Cl)c4)nc3)c2)CC1 [Example 19, 1-[4-[[5-[2-(3-chloroanilino)pyrimidin-5-yl]-3-pyridyl]amino]-1-piperidyl]prop-2-en-1-one] |  |  |  |  | 79.2 | 148 ± 33.1 | 523 ± 112 | < 5 |  |  |  |  | 
3 | C=CC(=O)N1CC(Nc2cncc(-c3cnc(Oc4cccc(OC(F)F)c4)nc3)n2)C1 [Example 24, 1-[3-[[6-[2-[3-(difluoromethoxy)phenoxy]pyrimidin-5-yl]pyrazin-2-yl]amino]azetidin-1-yl]prop-2-en-1-one] | 28 | 65.04 ± 2.31 | 49 | 61.43 ± 4.47 | 41 | 177 ± 41.6 |  | 8.53 ± 3.24 | 63 | 59.24 ± 1.49 | dose-related reduction |  | 
4 | C=CC(=O)N1CC(Nc2cncc(-c3cnc(Oc4cccc(OC(F)(F)F)c4)nc3)n2)C1 [Example 27, 1-[3-[[6-[2-[3-(trifluoromethoxy)phenoxy]pyrimidin-5-yl]pyrazin-2-yl]amino]azetidin-1-yl]prop-2-en-1-one] | 24 | 73.30 ± 0.95 | 45 | 69.58 ± 1.26 | 38.4 | 664 ± 314 | 10400 ± 11500 | 33.7 ± 10.8 |  |  | dose-related reduction |  | 
5 | C=CC(=O)N1CC(Nc2cncc(-c3cnc(Oc4cccc(Cl)c4)nc3)n2)C1 [Example 31, 1-[3-[[6-[2-(3-chlorophenoxy)pyrimidin-5-yl]pyrazin-2-yl]amino]azetidin-1-yl]prop-2-en-1-one] | 62 | 66.10 ± 1.83 | 81 | 63.70 ± 0.96 | 54.1 | 419 ± 118 | 366 ± 87 | 9.49 ± 3.21 | 82 | 64.33 ± 1.00 | dose-related reduction |  | 
6 | C=CC(=O)N1CC[C@H](Nc2cncc(-c3cnc(Nc4cccc(OC(F)(F)F)c4)nc3)n2)C1 [Example 33, 1-[(3S)-3-[[6-[2-[3-(trifluoromethoxy)anilino]pyrimidin-5-yl]pyrazin-2-yl]amino]pyrrolidin-1-yl]prop-2-en-1-one] | 52 | 68.32 ± 2.30 | 59 | 67.00 ± 1.52 | 44.6 | 261 ± 145 | 22200 ± 19500 | 9.44 ± 2.26 |  |  | dose-related reduction | 24 | 73.61 ± 2.09
7 | C=CC(=O)N1CCC(Nc2cncc(-c3cnc(Oc4cccc(Cl)c4)nc3)n2)CC1 [Example 44, 1-[4-[[6-[2-(3-chlorophenoxy)pyrimidin-5-yl]pyrazin-2-yl]amino]-1-piperidyl]prop-2-en-1-one] |  |  |  |  | 36.8 | 126 ± 29.7 | 207 ± 31.9 | 6.11 |  |  |  |  | 
